In patent US20240000872A1, “NOVEL BACTERIOPHAGE THAT LYSES ACINETOBACTER GENUS BACTERIA HAVING RESISTANCE TO ANTIBIOTICS” (priority 2020, published 2024):

Test system: Acinetobacter baumannii strains
Experiment: Antibiotic susceptibility test (CLSI disk diffusion test method, read per CLSI 2016); for antibiotic susceptibility S/I/R: key: ‘S’ means susceptible; ‘I’ means intermediate; ‘R’ means resistant; for susceptibility category (S/I/R): key: ‘S’ means susceptible; ‘I’ means intermediate; ‘R’ means resistant
Type: cell-based
Parameters: antibiotic susceptibility test value / susceptibility test value (number given before S/I/R) / antibiotic susceptibility value: unit not given here

colistin
antibiotic susceptibility value (host strain YMC16/01/R353): 0.5 | susceptibility category (S/I/R) (host strain YMC16/01/R353): S | susceptibility test value (number given before S/I/R) (host strain YMC16/01/R353): 0.5 | antibiotic susceptibility S/I/R (host strain YMC16/01/R380): S | antibiotic susceptibility value (host strain YMC16/01/R380): 0.5 | susceptibility category (S/I/R) (host strain YMC16/01/R380): S | susceptibility test value (number given before S/I/R) (host strain YMC16/01/R380): 0.5 | antibiotic susceptibility S/I/R (host strain YMC16/01/R397): S | antibiotic susceptibility value (host strain YMC16/01/R397): 0.5 | susceptibility category (S/I/R) (host strain YMC16/01/R397): S | susceptibility test value (number given before S/I/R) (host strain YMC16/01/R397): 0.5 | antibiotic susceptibility S/I/R (host strain YMC16/01/R405): S | antibiotic susceptibility value (host strain YMC16/01/R405): 0.5 | susceptibility category (S/I/R) (host strain YMC16/01/R405): S | susceptibility test value (number given before S/I/R) (host strain YMC16/01/R405): 0.5 | antibiotic susceptibility S/I/R (host strain YMC16/03/R4461): R | antibiotic susceptibility value (host strain YMC16/03/R4461): 16 | susceptibility category (S/I/R) (host strain YMC16/03/R4461): R | susceptibility test value (number given before S/I/R) (host strain YMC16/03/R4461): 16 | antibiotic susceptibility S/I/R (host strain YMC16/05/R2210): R | antibiotic susceptibility value (host strain YMC16/05/R2210): 16 | susceptibility category (S/I/R) (host strain YMC16/05/R2210): R | susceptibility test value (number given before S/I/R) (host strain YMC16/05/R2210): 16 | antibiotic susceptibility S/I/R (host strain YMC16/07/R2512): R | antibiotic susceptibility value (host strain YMC16/07/R2512): 16 | susceptibility category (S/I/R) (host strain YMC16/07/R2512): R | susceptibility test value (number given before S/I/R) (host strain YMC16/07/R2512): 16 | antibiotic susceptibility S/I/R (host strain YMC16/09/R2471): R | antibiotic susceptibility value (host strain YMC16/09/R2471): 16 | susceptibility category (S/I/R) (host strain YMC16/09/R2471): R | susceptibility test value (number given before S/I/R) (host strain YMC16/09/R2471): 16 | antibiotic susceptibility S/I/R (host strain YMC16/10/R2537): R | antibiotic susceptibility value (host strain YMC16/10/R2537): 16 | susceptibility category (S/I/R) (host strain YMC16/10/R2537): R | susceptibility test value (number given before S/I/R) (host strain YMC16/10/R2537): 16 | antibiotic susceptibility S/I/R (host strain YMC16/12/B11422): S | antibiotic susceptibility value (host strain YMC16/12/B11422): 0.5 | susceptibility category (S/I/R) (host strain YMC16/12/B11422): S | susceptibility test value (number given before S/I/R) (host strain YMC16/12/B11422): 0.5 | antibiotic susceptibility S/I/R (host strain YMC16/12/B11449): S | antibiotic susceptibility value (host strain YMC16/12/B11449): 0.5 | susceptibility category (S/I/R) (host strain YMC16/12/B11449): S | susceptibility test value (number given before S/I/R) (host strain YMC16/12/B11449): 0.5 | antibiotic susceptibility S/I/R (host strain YMC16/12/B13325): S | antibiotic susceptibility value (host strain YMC16/12/B13325): 0.5 | susceptibility category (S/I/R) (host strain YMC16/12/B13325): S | susceptibility test value (number given before S/I/R) (host strain YMC16/12/B13325): 0.5 | antibiotic susceptibility S/I/R (host strain YMC16/12/P503): R | antibiotic susceptibility value (host strain YMC16/12/P503): 16 | susceptibility category (S/I/R) (host strain YMC16/12/P503): R | susceptibility test value (number given before S/I/R) (host strain YMC16/12/P503): 16 | antibiotic susceptibility S/I/R (host strain YMC16/12/R4637): R | antibiotic susceptibility value (host strain YMC16/12/R4637): 16 | susceptibility category (S/I/R) (host strain YMC16/12/R4637): R | susceptibility test value (number given before S/I/R) (host strain YMC16/12/R4637): 16 | antibiotic susceptibility S/I/R (host strain YMC17/01/B8053): S | antibiotic susceptibility value (host strain YMC17/01/B8053): 0.5 | susceptibility category (S/I/R) (host strain YMC17/01/B8053): S | susceptibility test value (number given before S/I/R) (host strain YMC17/01/B8053): 0.5 | antibiotic susceptibility S/I/R (host strain YMC17/01/B10087): S | antibiotic susceptibility value (host strain YMC17/01/B10087): 0.5 | susceptibility category (S/I/R) (host strain YMC17/01/B10087): S | susceptibility test value (number given before S/I/R) (host strain YMC17/01/B10087): 0.5 | antibiotic susceptibility S/I/R (host strain YMC17/01/B12075): S | antibiotic susceptibility value (host strain YMC17/01/B12075): 22 | susceptibility category (S/I/R) (host strain YMC17/01/B12075): S | susceptibility test value (number given before S/I/R) (host strain YMC17/01/B12075): 22 | antibiotic susceptibility S/I/R (host strain YMC17/01/B13454): S | antibiotic susceptibility value (host strain YMC17/01/B13454): 0.5 | susceptibility category (S/I/R) (host strain YMC17/01/B13454): S | susceptibility test value (number given before S/I/R) (host strain YMC17/01/B13454): 0.5 | antibiotic susceptibility S/I/R (host strain YMC17/01/P518): S | antibiotic susceptibility value (host strain YMC17/01/P518): 0.5 | susceptibility category (S/I/R) (host strain YMC17/01/P518): S | susceptibility test value (number given before S/I/R) (host strain YMC17/01/P518): 0.5 | antibiotic susceptibility S/I/R (host strain YMC17/01/R2812): R | antibiotic susceptibility value (host strain YMC17/01/R2812): 16 | susceptibility category (S/I/R) (host strain YMC17/01/R2812): R | susceptibility test value (number given before S/I/R) (host strain YMC17/01/R2812): 16 | antibiotic susceptibility S/I/R (host strain YMC17/02/B14): S | antibiotic susceptibility value (host strain YMC17/02/B14): 0.5 | susceptibility category (S/I/R) (host strain YMC17/02/B14): S | susceptibility test value (number given before S/I/R) (host strain YMC17/02/B14): 0.5 | antibiotic susceptibility S/I/R (host strain YMC17/02/B87): S | antibiotic susceptibility value (host strain YMC17/02/B87): 0.5 | susceptibility category (S/I/R) (host strain YMC17/02/B87): S | susceptibility test value (number given before S/I/R) (host strain YMC17/02/B87): 0.5 | antibiotic susceptibility S/I/R (host strain YMC17/02/B721): S | antibiotic susceptibility value (host strain YMC17/02/B721): 0.5 | susceptibility category (S/I/R) (host strain YMC17/02/B721): S | susceptibility test value (number given before S/I/R) (host strain YMC17/02/B721): 0.5 | antibiotic susceptibility S/I/R (host strain YMC17/02/B4039): S | antibiotic susceptibility value (host strain YMC17/02/B4039): 0.5 | susceptibility category (S/I/R) (host strain YMC17/02/B4039): S | susceptibility test value (number given before S/I/R) (host strain YMC17/02/B4039): 0.5 | antibiotic susceptibility S/I/R (host strain YMC17/02/B4520): S | antibiotic susceptibility value (host strain YMC17/02/B4520): 0.5 | susceptibility category (S/I/R) (host strain YMC17/02/B4520): S | susceptibility test value (number given before S/I/R) (host strain YMC17/02/B4520): 0.5 | antibiotic susceptibility S/I/R (host strain YMC17/02/B4864): S | antibiotic susceptibility value (host strain YMC17/02/B4864): 0.5 | susceptibility category (S/I/R) (host strain YMC17/02/B4864): S | susceptibility test value (number given before S/I/R) (host strain YMC17/02/B4864): 0.5 | antibiotic susceptibility S/I/R (host strain YMC17/02/B8414): S | antibiotic susceptibility value (host strain YMC17/02/B8414): 0.5 | susceptibility category (S/I/R) (host strain YMC17/02/B8414): S | susceptibility test value (number given before S/I/R) (host strain YMC17/02/B8414): 0.5 | antibiotic susceptibility S/I/R (host strain YMC17/02/P523): S | antibiotic susceptibility value (host strain YMC17/02/P523): 0.5 | susceptibility category (S/I/R) (host strain YMC17/02/P523): S | susceptibility test value (number given before S/I/R) (host strain YMC17/02/P523): 0.5 | antibiotic susceptibility S/I/R (host strain YMC17/02/R541): R | antibiotic susceptibility value (host strain YMC17/02/R541): 16 | susceptibility category (S/I/R) (host strain YMC17/02/R541): R | susceptibility test value (number given before S/I/R) (host strain YMC17/02/R541): 16 | antibiotic susceptibility S/I/R (host strain YMC17/02/R2392): R | antibiotic susceptibility value (host strain YMC17/02/R2392): 16 | susceptibility category (S/I/R) (host strain YMC17/02/R2392): R | susceptibility test value (number given before S/I/R) (host strain YMC17/02/R2392): 4 | antibiotic susceptibility S/I/R (host strain YMC17/03/B4730): S | antibiotic susceptibility value (host strain YMC17/03/B4730): 0.5 | susceptibility category (S/I/R) (host strain YMC17/03/B4730): S | susceptibility test value (number given before S/I/R) (host strain YMC17/03/B4730): 0.5 | antibiotic susceptibility S/I/R (host strain YMC17/03/B5000): S | antibiotic susceptibility value (host strain YMC17/03/B5000): 0.5 | susceptibility category (S/I/R) (host strain YMC17/03/B5000): S | susceptibility test value (number given before S/I/R) (host strain YMC17/03/B5000): 0.5 | antibiotic susceptibility S/I/R (host strain YMC17/03/P971): R | antibiotic susceptibility value (host strain YMC17/03/P971): 16 | susceptibility category (S/I/R) (host strain YMC17/03/P971): R | susceptibility test value (number given before S/I/R) (host strain YMC17/03/P971): 16 | antibiotic susceptibility S/I/R (host strain YMC17/03/R348): R | antibiotic susceptibility value (host strain YMC17/03/R348): 16 | susceptibility category (S/I/R) (host strain YMC17/03/R348): R | susceptibility test value (number given before S/I/R) (host strain YMC17/03/R348): 4 | antibiotic susceptibility S/I/R (host strain YMC17/03/R585): R | antibiotic susceptibility value (host strain YMC17/03/R585): 16 | susceptibility category (S/I/R) (host strain YMC17/03/R585): R | susceptibility test value (number given before S/I/R) (host strain YMC17/03/R585): 16 | antibiotic susceptibility S/I/R (host strain YMC17/03/R1888): R | antibiotic susceptibility value (host strain YMC17/03/R1888): 16 | susceptibility category (S/I/R) (host strain YMC17/03/R1888): R | susceptibility test value (number given before S/I/R) (host strain YMC17/03/R1888): 16 | antibiotic susceptibility S/I/R (host strain YMC17/03/R3279): R | antibiotic susceptibility value (host strain YMC17/03/R3279): 16 | susceptibility category (S/I/R) (host strain YMC17/03/R3279): R | susceptibility test value (number given before S/I/R) (host strain YMC17/03/R3279): 16 | antibiotic susceptibility S/I/R (host strain YMC17/03/R4077): S | antibiotic susceptibility value (host strain YMC17/03/R4077): 0.5 | susceptibility category (S/I/R) (host strain YMC17/03/R4077): S | susceptibility test value (number given before S/I/R) (host strain YMC17/03/R4077): 0.5 | antibiotic susceptibility S/I/R (host strain YMC17/03/R4607): S | antibiotic susceptibility value (host strain YMC17/03/R4607): 0.5 | susceptibility category (S/I/R) (host strain YMC17/03/R4607): S | susceptibility test value (number given before S/I/R) (host strain YMC17/03/R4607): 0.5 | antibiotic susceptibility S/I/R (host strain YMC17/04/R488): R | antibiotic susceptibility value (host strain YMC17/04/R488): 8 | susceptibility category (S/I/R) (host strain YMC17/04/R488): R | susceptibility test value (number given before S/I/R) (host strain YMC17/04/R488): 8 | antibiotic susceptibility S/I/R (host strain YMC17/04/R640): R | antibiotic susceptibility value (host strain YMC17/04/R640): 8 | susceptibility category (S/I/R) (host strain YMC17/04/R640): R | susceptibility test value (number given before S/I/R) (host strain YMC17/04/R640): 8 | antibiotic susceptibility S/I/R (host strain YMC/17/05/R1095): R | antibiotic susceptibility value (host strain YMC/17/05/R1095): 16 | susceptibility category (S/I/R) (host strain YMC/17/05/R1095): R | susceptibility test value (number given before S/I/R) (host strain YMC/17/05/R1095): 16
